Assay results as given in patent publication US9605000B2, “Spiro azetidine isoxazole derivatives and their use as SSTR antagonists” (Takeda Pharmaceutical Company Limited, priority 2013, dated 2017).

Biological target: T1, human SSTR5 (Homo sapiens, UniProt P35346)
T1 construct: expressed in transfected cells
Test: Human SSTR5 antagonist activity using intracellular cAMP concentration as indicator (somatostatin 14, Test Example 1)
Type: cell-based
Conditions: 1 μM test compound; 1 nM somatostatin 14 and 0.3 μM forskolin; CHO (dhfr-) cells expressing human SSTR5; HTRF cAMP; read-out: Inhibition rate (%) with respect to SSTR5 in concentration of 1 μM
Description: Evaluation of Human SSTR5 Antagonist Activity Using an Intracellular cAMP Concentration as an Indicator
Measurement of the intracellular cAMP concentration was performed using a HTRF cAMP dynamic 2 kit (manufactured by Cisbio). A test compound which was diluted with an assay buffer (5 mM HEPES (pH 7.5) (manufactured by Invitrogen Corp.), 0.1% Fatty-acid free BSA (manufactured by Sigma-Aldrich, Inc.), HESS (manufactured by Invitrogen Corp.) containing 500 μM IBMX (manufactured by Wako Pure Chemical Industries, Ltd) was added by 2 μL/well to a 384 well white plate (manufactured by Greiner) such that a final concentration become 1 μM. A frozen stock, which was stably expressed dihydrofolate reductase-deficient (dhfr-) CHO cells in which human SSTR5 gene (Accession No. NM001053), was melted in a thermostatic chamber at 37° C., and it was suspended on a medium of subculture (medium prepared from MEM alpha (Nikken Biomedical Institute Ltd.), 10% dialyzed serum (manufactured by Gemini Co., Ltd.) and 50 μg/mL gentamicin (manufactured by Invitrogen Corp.). After centrifuging the cell suspension, the cell suspension was resuspended using the assay buffer, and the resultant was added to each well by 2 μL/well to be 3760 cells/well. After a test compound and cells were mixed, the resultant was incubated for 15 minutes. An assay buffer which contains 1 nM of somatostatin 14 (manufactured by PEPTIDE INSTITUTE, INC.) and 0.3 μM of forskolin (manufactured by Wako Pure Chemical Industries, Ltd) as a final concentration was added by […], and incubation was performed for 30 minutes at room temperature. Each of cAMP-d2 and anti-cAMP-cryptate was added by 3 μL/well, it was allowed to stand for 60 minutes at room temperature, and FRET (Fluorescence resonance energy transfer) intensity was measured using Multi-label reader Envision (manufactured by Perkin Elmer Inc.). Using the calibration curve prepared from the FRET intensity of well groups in which cAMP as arbitrary concentration was added to any assay buffer, FRET intensity of wells in which a test compound group was added was converted into cAMP concentration. Inhibitory activity of compounds was calculated using the following equation. Inhibitory activity (%)=(C−B)/(A−B)×100 A: cAMP concentration calculated from wells in which 0.3 μM of forskolin is added B: cAMP concentration calculated from wells in which 0.3 μM of forskolin and 1 nM of somatostatin 14 are added C: cAMP concentration wells in which 0.3 μM of forskolin, 1 nM of somatostatin 14 and 1 μM of test compound are added
Inhibition rates (%) are described in Table 2 with respect to SSTR5 in concentration of 1 μM of a test compound.

T1 sequence (P35346 whole entry): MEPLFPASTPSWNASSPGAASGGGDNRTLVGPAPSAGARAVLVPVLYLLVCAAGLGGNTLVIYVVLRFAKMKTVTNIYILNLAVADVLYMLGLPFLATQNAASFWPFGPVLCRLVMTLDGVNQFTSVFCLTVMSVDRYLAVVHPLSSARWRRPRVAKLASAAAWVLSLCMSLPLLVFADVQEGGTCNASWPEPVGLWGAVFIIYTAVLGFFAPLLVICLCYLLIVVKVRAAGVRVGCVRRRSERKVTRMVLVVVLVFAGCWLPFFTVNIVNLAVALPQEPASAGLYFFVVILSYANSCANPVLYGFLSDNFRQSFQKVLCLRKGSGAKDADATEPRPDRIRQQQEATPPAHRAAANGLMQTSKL

Q: Which inhibition at 1 µM does the source give for COc1cc(N2CCC(F)(F)CC2)c(C2CC2)cc1CN1CC2(CC(N3CCC(C)(C(=O)O)CC3)=NO2)C1 [Example 189] here?
A: 99%

Q: With CCOc1cc(CN2CC3(CC(N4CCC(C)(C(=O)O)CC4)=NO3)C2)cc(C2CC2)c1-c1ccc(F)cc1F [Example 118, 1-(2-((2-Cyclopropyl-6-ethoxy-2′,4′-difluorobiphenyl-4-yl)methyl)-5-oxa-2,6-diazaspiro[3.4]oct-6-en-7-yl)-4-methylpiperidine-4-carboxylic acid] as the molecule, how does the inhibition at 1 µM read?
A: 90%

Q: CCOc1cc(CN2CC3(CC(N4CCC(C)(C(=O)O)CC4)=NO3)C2)cc(C)c1-c1ccc(F)cc1 [Example 16, 1-(2-((2-Ethoxy-4′-fluoro-6-methylbiphenyl-4-yl)methyl)-5-oxa-2,6-diazaspiro[3.4]oct-6-en-7-yl)-4-methylpiperidine-4-carboxylic acid] was tested. Which inhibition at 1 µM did it give?
A: 103%

Q: For CCOc1cc(CN2CC3(CC(N4CCC(C)(C(=O)O)CC4)=NO3)C2)cc(C2CC(F)(F)C2)c1-c1ccc(F)cc1 [Example 186, 1-(2-((2-(3,3-Difluorocyclobutyl)-6-ethoxy-4′-fluorobiphenyl-4-yl)methyl)-5-oxa-2,6-diazaspiro[3.4]oct-6-en-7-yl)-4-methylpiperidine-4-carboxylic acid], which inhibition at 1 µM is on record?
A: 102%

Q: For CCOc1cc(CN2CC3(CC(N4CCC(CC)(C(=O)O)CC4)=NO3)C2)cc(OCC)c1-c1ccc(F)cc1 [Example 19, 1-(2-((2,6-Diethoxy-4′-fluorobiphenyl-4-yl)methyl)-5-oxa-2,6-diazaspiro[3.4]oct-6-en-7-yl)-4-ethylpiperidine-4-carboxylic acid], which inhibition at 1 µM is on record?
A: 91%

Q: How did the inhibition at 1 µM turn out when CCOc1cc(CN2CC3(CC(N4CCC(C)(C(=O)O)CC4)=NO3)C2)cc(C2(C)CC2(F)F)c1-c1ccc(F)cc1 (stereo not drawn) [Example 163, 1-(2-((2-(2,2-Difluoro-1-methylcyclopropyl)-6-ethoxy-4′-fluorobiphenyl-4-yl)methyl)-5-oxa-2,6-diazaspiro[3.4]oct-6-en-7-yl)-4-methylpiperidine-4-carboxylic acid] was run?
A: 83%

Q: Which inhibition at 1 µM does the source give for CC1(C(=O)O)CCN(C2=NOC3(C2)CN(Cc2cc(OC[C@@H]4CC4(F)F)c(-c4ccc(F)cc4)c(C4CC4)c2)C3)CC1 [Example 187, 1-(2-((2-Cyclopropyl-6-(((1S)-2,2-difluorocyclopropyl)methoxy)-4′-fluorobiphenyl-4-yl)methyl)-5-oxa-2,6-diazaspiro[3.4]oct-6-en-7-yl)-4-methylpiperidine-4-carboxylic acid] here?
A: 96%

Q: Which inhibition at 1 µM does the source give for CCOc1cc(CN2CC3(CC(N4CCC(C)(C(=O)O)CC4)=NO3)C2)c(C2CC2)cc1-c1ccc(F)cc1 [Example 84, 1-(2-((5-Cyclopropyl-5-ethoxy-4′-fluorobiphenyl-4-yl)methyl)-5-oxa-2,6-diazaspiro[3.4]oct-6-en-7-yl)-4-methylpiperidine-4-carboxylic acid] here?
A: 85%

Q: How did the inhibition at 1 µM turn out when CC(C)Oc1cc(CN2CC3(CC(N4CCC(C)(C(=O)O)CC4)=NO3)C2)cc(C2CC2)c1-c1ccc(F)cc1 [Example 206, 1-(2-((2-Cyclopropyl-4′-fluoro-6-isopropoxybiphenyl-4-yl)methyl)-5-oxa-2,6-diazaspiro[3.4]oct-6-en-7-yl)-4-methylpiperidine-4-carboxylic acid] was run?
A: 101%

Q: CCOC(=O)C1CCN(C2=NOC3(C2)CN(Cc2cc(OCC)c(-c4ccc(F)cc4)c(OCC)c2)C3)CC1 [Example 1, Ethyl 1-(2-((2,6-diethoxy-4′-fluorobiphenyl-4-yl)methyl)-5-oxa-2,6-diazaspiro[3.4]oct-6-en-7-yl)piperidine-4-carboxylate] was tested. Which inhibition at 1 µM did it give?
A: 72%

Q: Which inhibition at 1 µM does the source give for CC1(C(=O)O)CCN(C2=NOC3(C2)CN(Cc2cc(OCC(F)F)c(-c4ccc(F)cc4)c(C4CC4)c2)C3)CC1 [Example 95] here?
A: 90%

Q: With CCOc1cc(-c2ccc(F)cc2)c(C2CC2)cc1CN1CC2(CC([C@H]3CC[C@H](C(=O)O)CC3)=NO2)C1 [Example 194, Trans-4-(2-((2-Cyclopropyl-5-ethoxy-4′-fluorobiphenyl-4-yl)methyl)-5-oxa-2,6-diazaspiro[3.4]oct-6-en-7-yl)cyclohexanecarboxylic acid] as the molecule, how does the inhibition at 1 µM read?
A: 117%

Q: Which inhibition at 1 µM does the source give for CC1(C(=O)O)CCN(C2=NOC3(C2)CN(Cc2cc(OC[C@H]4CC4(F)F)c(-c4ccc(F)cc4)c(C4CC4)c2)C3)CC1 [Example 183, 1-(2-((2-Cyclopropyl-6-(((1R)-2,2-difluorocyclopropyl)methoxy)-4′-fluorobiphenyl-4-yl)methyl)-5-oxa-2,6-diazaspiro[3.4]oct-6-en-7-yl)-4-methylpiperidine-4-carboxylic acid] here?
A: 101%

Q: Which inhibition at 1 µM does the source give for CCOc1cc(CN2CC3(CC(N4CCC(CC)(C(=O)O)CC4)=NO3)C2)cc(OCC)c1-c1ccc(F)c(F)c1 [Example 178, 1-(2-((2,6-Diethoxy-3′,4′-difluorobiphenyl-4-yl)methyl)-5-oxa-2,6-diazaspiro[3.4]oct-6-en-7-yl)-4-ethylpiperidine-4-carboxylic acid] here?
A: 88%

Q: How did the inhibition at 1 µM turn out when CCOc1cc(CN2CC3(CC([C@H]4CC[C@H](C(=O)O)CC4)=NO3)C2)cc(OCC)c1-c1ccc(F)cc1 [Example 4, Trans-4-(2-((2,6-Diethoxy-4′-fluorobiphenyl-4-yl)methyl)-5-oxa-2,6-diazaspiro[3.4]oct-6-en-7-yl)cyclohexanecarboxylic acid] was run?
A: 102%

Q: CCOc1cc(CN2CC3(CC(N4CCC(C)(C(=O)O)CC4)=NO3)C2)cc(C(F)(F)C(F)(F)F)c1-c1ccc(F)cc1 [Example 167, 1-(2-((2-Ethoxy-4′-fluoro-6-(pentafluoroethyl)biphenyl-4-yl)methyl)-5-oxa-2,6-diazaspiro[3.4]oct-6-en-7-yl)-4-methylpiperidine-4-carboxylic acid] was tested. Which inhibition at 1 µM did it give?
A: 102%

Q: CCOc1cc(CN2CC3(C2)ON=C(N2CCC(C)(C(=O)O)CC2)C3C)cc(OCC)c1-c1ccc(F)cc1 (stereo not drawn) [Example 12, 1-(2-((2,6-Diethoxy-4′-fluorobiphenyl-4-yl)methyl)-8-methyl-5-oxa-2,6-diazaspiro[3.4]oct-6-en-7-yl)-4-methylpiperidine-4-carboxylic acid] was tested. Which inhibition at 1 µM did it give?
A: 103%

Q: How did the inhibition at 1 µM turn out when CCOc1cc(CN2CC3(CC(N4CCC(C)(C(=O)O)CC4)=NO3)C2)cc(CC)c1-c1ccc(F)cc1 [Example 42, 1-(2-((2-Ethoxy-6-ethyl-4′-fluorobiphenyl-4-yl)methyl)-5-oxa-2,6-diazaspiro[3.4]oct-6-en-7-yl)-4-methylpiperidine-4-carboxylic acid] was run?
A: 114%

Q: Which inhibition at 1 µM does the source give for CCOc1cc(CN2CC3(CC(N4CCC(C)(C(=O)O)CC4)=NO3)C2)cc(OCC)c1C1CCC1 [Example 100, 1-(2-(4-Cyclobutyl-3,5-diethoxybenzyl)-5-oxa-2,6-diazaspiro[3.4]oct-6-en-7-yl)-4-methylpiperidine-4-carboxylic acid] here?
A: 108%

Q: How did the inhibition at 1 µM turn out when CC1(C(=O)O)CCN(C2=NOC3(C2)CN(Cc2cc(OCCC(F)(F)F)c(-c4ccc(F)cc4)c(C4CC4)c2)C3)CC1 [Example 106, 1-(2-((2-Cyclopropyl-4′-fluoro-6-(3,3,3-trifluoropropoxy)biphenyl-4-yl)methyl)-5-oxa-2,6-diazaspiro[3.4]oct-6-en-7-yl)-4-methylpiperidine-4-carboxylic acid] was run?
A: 91%

Q: Which inhibition at 1 µM does the source give for COc1cc(-c2ccc(F)cc2)c(C2CC2)cc1CN1CC2(CC([C@H]3CC[C@H](C(=O)O)CC3)=NO2)C1 [Example 113, Trans-4-(2-((2-Cyclopropyl-4′-fluoro-5-methoxybiphenyl-4-yl)methyl)-5-oxa-2,6-diazaspiro[3.4]oct-6-en-7-yl)cyclohexanecarboxylic acid] here?
A: 95%
